Laboratory results from PubChem BioAssay AID1963834 (Molecular Pharmacology Branch, DTP, NCI, 2024).

Test system: 873145-292-R-J1-PDC complex spheroid viability
Assay: Anticancer human tumor 873145-292-R-J1-PDC patient-derived renal clear cell carcinoma cell line growth inhibition [POLQ]
Settings: for IC50: curve of first compound; for viability, T/C: stronger effect = lower value; active = viability on the fitted dose curve at most 10% of control; inactive = the rest
Outline: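 Three-cell-type spheroids modelling solid tumor plus stroma served as the readout system; POL inhibitors were tested individually and in combination, concentration ranges set by clinical Cmax where known.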

[1] = second compound 0.0316 µM, first compound 0.0316 µM
[2] = second compound 0.0316 µM, first compound 0.1 µM
[3] = second compound 0.0316 µM, first compound 0.316 µM
[4] = second compound 0.0316 µM, first compound 1 µM
[5] = second compound 0.0316 µM, first compound 3.16 µM
[6] = second compound 0.0316 µM, first compound 10 µM
[7] = second compound 0.1 µM, first compound 0.0316 µM
[8] = second compound 0.1 µM, first compound 0.1 µM
[9] = second compound 0.1 µM, first compound 0.316 µM
[10] = second compound 0.1 µM, first compound 1 µM
[11] = second compound 0.1 µM, first compound 3.16 µM
[12] = second compound 0.1 µM, first compound 10 µM
[13] = second compound 0.316 µM, first compound 0.0316 µM
[14] = second compound 0.316 µM, first compound 0.1 µM
[15] = second compound 0.316 µM, first compound 0.316 µM
[16] = second compound 0.316 µM, first compound 1 µM
[17] = second compound 0.316 µM, first compound 3.16 µM
[18] = second compound 0.316 µM, first compound 10 µM
[19] = second compound 1 µM, first compound 0.0316 µM
[20] = second compound 1 µM, first compound 0.1 µM
[21] = second compound 1 µM, first compound 0.316 µM
[22] = second compound 1 µM, first compound 1 µM
[23] = second compound 1 µM, first compound 3.16 µM
[24] = second compound 1 µM, first compound 10 µM
[25] = second compound 3.16 µM, first compound 0.0316 µM
[26] = second compound 3.16 µM, first compound 0.1 µM
[27] = second compound 3.16 µM, first compound 0.316 µM
[28] = second compound 3.16 µM, first compound 1 µM
[29] = second compound 3.16 µM, first compound 3.16 µM
[30] = second compound 3.16 µM, first compound 10 µM
[31] = second compound 10 µM, first compound 0.0316 µM
[32] = second compound 10 µM, first compound 0.1 µM
[33] = second compound 10 µM, first compound 0.316 µM
[34] = second compound 10 µM, first compound 1 µM
[35] = second compound 10 µM, first compound 3.16 µM
[36] = second compound 10 µM, first compound 10 µM
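Note: spheroids exposed to compounds for 7 days before viability readout.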
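Throughout, for viability, T/C: luminescence signal used as surrogate for viable cell content; 100% = DMSO vehicle control viability.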

CC(=O)O[C@H]1C(=O)[C@@]2(C)[C@H]([C@H](OC(=O)c3ccccc3)[C@]3(O)C[C@H](OC(=O)[C@H](O)[C@@H](NC(=O)c4ccccc4)c4ccccc4)C(C)=C1C3(C)C)[C@]1(OC(C)=O)CO[C@@H]1C[C@@H]2O + Nc1ccc(C#CCN(C(=O)Cc2ncc(C(F)(F)F)cc2C(F)(F)F)c2ccc(F)cc2)nn1
inactive: viability, T/C (second compound 0.0316 µM, first compound 0.00949 µM) 89.1% | viability, T/C (second compound 0.0316 µM, first compound 0.03 µM) 85.9% | viability, T/C (second compound 0.0316 µM, first compound 0.0949 µM) 79.5% | viability, T/C (second compound 0.0316 µM, first compound 0.3 µM) 72.9% | viability, T/C (second compound 0.0316 µM, first compound 0.949 µM) 67.6% | viability, T/C (second compound 0.0316 µM, first compound 3 µM) 71.2% | viability, T/C (second compound 0.1 µM, first compound 0.00949 µM) 85.4% | viability, T/C (second compound 0.1 µM, first compound 0.03 µM) 90.2% | viability, T/C (second compound 0.1 µM, first compound 0.0949 µM) 71.8% | viability, T/C (second compound 0.1 µM, first compound 0.3 µM) 68.3% | viability, T/C (second compound 0.1 µM, first compound 0.949 µM) 68.8% | viability, T/C (second compound 0.1 µM, first compound 3 µM) 65% | viability, T/C (second compound 0.316 µM, first compound 0.00949 µM) 90.3% | viability, T/C (second compound 0.316 µM, first compound 0.03 µM) 84.6% | viability, T/C (second compound 0.316 µM, first compound 0.0949 µM) 68.1% | viability, T/C (second compound 0.316 µM, first compound 0.3 µM) 68.8% | viability, T/C (second compound 0.316 µM, first compound 0.949 µM) 66.9% | viability, T/C (second compound 0.316 µM, first compound 3 µM) 62.8% | viability, T/C (second compound 1 µM, first compound 0.00949 µM) 85.2% | viability, T/C (second compound 1 µM, first compound 0.03 µM) 71.5% | viability, T/C (second compound 1 µM, first compound 0.0949 µM) 72.7% | viability, T/C (second compound 1 µM, first compound 0.3 µM) 70.7% | viability, T/C (second compound 1 µM, first compound 0.949 µM) 70.7% | viability, T/C (second compound 1 µM, first compound 3 µM) 68.7% | viability, T/C (second compound 3.16 µM, first compound 0.00949 µM) 87% | viability, T/C (second compound 3.16 µM, first compound 0.03 µM) 73.7% | viability, T/C (second compound 3.16 µM, first compound 0.0949 µM) 72.3% | viability, T/C (second compound 3.16 µM, first compound 0.3 µM) 72.3% | viability, T/C (second compound 3.16 µM, first compound 0.949 µM) 71.8% | viability, T/C (second compound 3.16 µM, first compound 3 µM) 69% | viability, T/C (second compound 10 µM, first compound 0.00949 µM) 81.1% | viability, T/C (second compound 10 µM, first compound 0.03 µM) 75.5% | viability, T/C (second compound 10 µM, first compound 0.0949 µM) 74.8% | viability, T/C (second compound 10 µM, first compound 0.3 µM) 67.1% | viability, T/C (second compound 10 µM, first compound 0.949 µM) 65.7% | viability, T/C (second compound 10 µM, first compound 3 µM) 74%
> 3 µM: IC50 (second compound 0.0316 µM) | IC50 (second compound 0.1 µM) | IC50 (second compound 0.316 µM) | IC50 (second compound 1 µM) | IC50 (second compound 3.16 µM) | IC50 (second compound 10 µM)

COc1cc(C2c3cc4c(cc3C(OC3OC5COC(C)OC5C(O)C3O)C3COC(=O)C23)OCO4)cc(OC)c1O (stereo unspecified) + Nc1ccc(C#CCN(C(=O)Cc2ncc(C(F)(F)F)cc2C(F)(F)F)c2ccc(F)cc2)nn1
> 10 µM: IC50 (second compound 0.0316 µM) | IC50 (second compound 0.1 µM) | IC50 (second compound 0.316 µM) | IC50 (second compound 1 µM) | IC50 (second compound 3.16 µM) | IC50 (second compound 10 µM)
inactive: viability, T/C [1] 107% | viability, T/C [2] 104% | viability, T/C [3] 105% | viability, T/C [4] 95.3% | viability, T/C [5] 82.3% | viability, T/C [6] 68% | viability, T/C [7] 107% | viability, T/C [8] 118% | viability, T/C [9] 97.7% | viability, T/C [10] 88.6% | viability, T/C [11] 83.9% | viability, T/C [12] 58.7% | viability, T/C [13] 103% | viability, T/C [14] 106% | viability, T/C [15] 109% | viability, T/C [16] 98.8% | viability, T/C [17] 87.6% | viability, T/C [18] 62% | viability, T/C [19] 99.5% | viability, T/C [20] 105% | viability, T/C [21] 107% | viability, T/C [22] 95.3% | viability, T/C [23] 87.4% | viability, T/C [24] 72.8% | viability, T/C [25] 112% | viability, T/C [26] 109% | viability, T/C [27] 109% | viability, T/C [28] 93.3% | viability, T/C [29] 76.3% | viability, T/C [30] 58.8% | viability, T/C [31] 103% | viability, T/C [32] 107% | viability, T/C [33] 110% | viability, T/C [34] 97.1% | viability, T/C [35] 78.5% | viability, T/C [36] 67.3%

O=c1[nH]cc(F)c(=O)[nH]1 + Nc1ccc(C#CCN(C(=O)Cc2ncc(C(F)(F)F)cc2C(F)(F)F)c2ccc(F)cc2)nn1
inactive: viability, T/C [1] 109% | viability, T/C [2] 103% | viability, T/C [3] 101% | viability, T/C [4] 91.1% | viability, T/C [5] 98.5% | viability, T/C [6] 103% | viability, T/C [7] 104% | viability, T/C [8] 117% | viability, T/C [9] 101% | viability, T/C [10] 105% | viability, T/C [11] 98.3% | viability, T/C [12] 93.7% | viability, T/C [13] 105% | viability, T/C [14] 105% | viability, T/C [15] 87.6% | viability, T/C [16] 98% | viability, T/C [17] 103% | viability, T/C [18] 97.7% | viability, T/C [19] 113% | viability, T/C [20] 107% | viability, T/C [21] 102% | viability, T/C [22] 90.1% | viability, T/C [23] 114% | viability, T/C [24] 95.2% | viability, T/C [25] 118% | viability, T/C [26] 101% | viability, T/C [27] 112% | viability, T/C [28] 105% | viability, T/C [29] 105% | viability, T/C [30] 105% | viability, T/C [31] 107% | viability, T/C [32] 125% | viability, T/C [33] 132% | viability, T/C [34] 116% | viability, T/C [35] 105% | viability, T/C [36] 112%
> 10 µM: IC50 (second compound 0.0316 µM) | IC50 (second compound 0.1 µM) | IC50 (second compound 0.316 µM) | IC50 (second compound 1 µM) | IC50 (second compound 3.16 µM) | IC50 (second compound 10 µM)
